{"source": "patent US6914045B2", "about": "“Glycopeptide antibiotics” (Wyeth Holdings Corporation, priority 2001, dated 2005)", "key": {"Enterococcus sp.": {"tested_on": "Enterococcus sp.", "test": "in vitro antibacterial evaluation, MIC by broth dilution", "type": "cell-based", "conditions": "broth dilution, 18 hours at 35° C.", "procedure,_shortened": "(§1)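 Step 1: dilute antibiotic across 64-0.06 μg/mL in Muller-Hinton II […]. Step 2: inoculate at 5×10^5 CFU/mL.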"}, "Staphylococcus sp.": {"tested_on": "Staphylococcus sp.", "test": "in vitro antibacterial evaluation, MIC by broth dilution", "type": "cell-based", "conditions": "broth dilution, 18 hours at 35° C.", "procedure,_shortened": "as §1"}, "Streptococcus sp.": {"tested_on": "Streptococcus sp.", "test": "in vitro antibacterial evaluation, MIC by broth dilution", "type": "cell-based", "conditions": "broth dilution, 18 hours at 35° C.", "procedure,_shortened": "as §1"}, "[1]": {"tested_on": "Staphylococcus aureus-SMITH (GC 4543)", "test": "acute lethal infection in mice", "type": "in vivo", "conditions": "acute lethal infection, female CD-1 mice, intraperitoneal challenge, intravenous 30 min. after infection, 7 day survival", "procedure,_shortened": "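Survival at 7 days, pooled from three independent tests, yields ED50 values. Treatment is intravenous, 30 min after ip infection of female CD-1 mice, using an inoculum lethal to untreated controls within 24-48 hr.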"}, "[2]": {"test": "anatomic pathology (histopathology of heart and kidney) in mice", "type": "in vivo", "conditions": "CD-1 mice, 20 mg/kg intravenously daily for 9 days, necropsy day 10, microscopic histopathology", "description": "Samples of tissues from necropsied mice were formalin-fixed, paraffin-embedded, sectioned, stained with hematoxylin and eosin, and examined microscopically. Histopathologic findings were recorded. These findings were subjectively graded on a scale corresponding to slight, mild, moderate, marked and severe as compared to untreated controls."}, "Escherichia coli": {"tested_on": "Escherichia coli", "test": "in vitro antibacterial evaluation, MIC by broth dilution", "type": "cell-based", "conditions": "18 hours at 35° C."}}}
{"smiles": "N=C1NCC(C(O)C2NC(=O)C(Cc3ccc(OC4OC(CO)C(OC5OC6COC7(OC6C(O)C5O)C5CC6CC(C5)CC7C6)C(O)C4O)cc3)NC(=O)C(Cc3ccccc3)NC(=O)CNC(=O)C(CO)NC(=O)C(C(O)C3CNC(=N)N3C3OC(CO)C(O)C(O)C3O)NC2=O)N1", "note": "(stereo not drawn) [Example 220]", "values": [{"measurement": "MIC Enterococcus avium (GC 4558)", "setting": "Enterococcus sp.", "value": 2, "unit": "µg/mL"}, {"measurement": "MIC Enterococcus faecalis (ATCC 29212)", "setting": "Enterococcus sp.", "value": 2, "unit": "µg/mL"}, {"measurement": "MIC Enterococcus faecalis (GC 2242)", "setting": "Enterococcus sp.", "value": 1, "unit": "µg/mL"}, {"measurement": "MIC Enterococcus faecalis (GC 2691)", "setting": "Enterococcus sp.", "value": 2, "unit": "µg/mL"}, {"measurement": "MIC Enterococcus faecalis (GC 3059)", "setting": "Enterococcus sp.", "value": 2, "unit": "µg/mL"}, {"measurement": "MIC Enterococcus faecalis (GC 4552)", "setting": "Enterococcus sp.", "value": 2, "unit": "µg/mL"}, {"measurement": "MIC Enterococcus faecalis (GC 4553)", "setting": "Enterococcus sp.", "value": 1, "unit": "µg/mL"}, {"measurement": "MIC Enterococcus faecalis (GC 4554)", "setting": "Enterococcus sp.", "value": 2, "unit": "µg/mL"}, {"measurement": "MIC Enterococcus faecalis (GC 6189)", "setting": "Enterococcus sp.", "value": 1, "unit": "µg/mL"}, {"measurement": "MIC Enterococcus faecium (GC 2243)", "setting": "Enterococcus sp.", "value": 1, "unit": "µg/mL"}, {"measurement": "MIC Enterococcus faecium (GC 4556)", "setting": "Enterococcus sp.", "value": 1, "unit": "µg/mL"}, {"measurement": "MIC Enterococcus faecium (GC 4557)", "setting": "Enterococcus sp.", "value": 1, "unit": "µg/mL"}, {"measurement": "MIC Enterococcus faecalis (ATCC 29212)", "setting": "Enterococcus sp.; inoculum 5×10^5 CFU/mL, strain ATCC 29212", "value": 2, "unit": "µg/mL"}, {"measurement": "MIC Enterococcus faecalis (GC 2242)", "setting": "Enterococcus sp.; inoculum 5×10^5 CFU/mL, strain GC 2242", "value": 1, "unit": "µg/mL"}, {"measurement": "MIC Enterococcus faecium (GC 2243)", "setting": "Enterococcus sp.; inoculum 5×10^5 CFU/mL, strain GC 2243", "value": 1, "unit": "µg/mL"}, {"measurement": "MIC Enterococcus faecalis (GC 2691)", "setting": "Enterococcus sp.; inoculum 5×10^5 CFU/mL, strain GC 2691", "value": 2, "unit": "µg/mL"}, {"measurement": "MIC Enterococcus faecalis (GC 3059)", "setting": "Enterococcus sp.; inoculum 5×10^5 CFU/mL, strain GC 3059", "value": 2, "unit": "µg/mL"}, {"measurement": "MIC Enterococcus faecalis (GC 4552)", "setting": "Enterococcus sp.; inoculum 5×10^5 CFU/mL, strain GC 4552", "value": 2, "unit": "µg/mL"}, {"measurement": "MIC Enterococcus faecalis (GC 4553)", "setting": "Enterococcus sp.; inoculum 5×10^5 CFU/mL, strain GC 4553", "value": 1, "unit": "µg/mL"}, {"measurement": "MIC Enterococcus faecalis (GC 4554)", "setting": "Enterococcus sp.; inoculum 5×10^5 CFU/mL, strain GC 4554", "value": 2, "unit": "µg/mL"}, {"measurement": "MIC Enterococcus faecium (GC 4556)", "setting": "Enterococcus sp.; inoculum 5×10^5 CFU/mL, strain GC 4556", "value": 1, "unit": "µg/mL"}, {"measurement": "MIC Enterococcus faecium (GC 4557)", "setting": "Enterococcus sp.; inoculum 5×10^5 CFU/mL, strain GC 4557", "value": 1, "unit": "µg/mL"}, {"measurement": "MIC Enterococcus avium (GC 4558)", "setting": "Enterococcus sp.; inoculum 5×10^5 CFU/mL, strain GC 4558", "value": 2, "unit": "µg/mL"}, {"measurement": "MIC Enterococcus faecalis (GC 6189)", "setting": "Enterococcus sp.; inoculum 5×10^5 CFU/mL, strain GC 6189", "value": 1, "unit": "µg/mL"}, {"measurement": "MIC Staphylococcus aureus (ATCC 29213)", "setting": "Staphylococcus sp.; strain ATCC 29213", "value": 0.5, "unit": "µg/mL"}, {"measurement": "MIC Staphylococcus aureus (GC 1131)", "setting": "Staphylococcus sp.; strain GC 1131", "value": 1, "unit": "µg/mL"}, {"measurement": "MIC Staphylococcus aureus (GC 3051)", "setting": "Staphylococcus sp.; strain GC 3051", "value": 1, "unit": "µg/mL"}, {"measurement": "MIC Staphylococcus aureus (GC 3053)", "setting": "Staphylococcus sp.; strain GC 3053", "value": 1, "unit": "µg/mL"}, {"measurement": "MIC Staphylococcus aureus (GC 4541)", "setting": "Staphylococcus sp.; strain GC 4541", "value": 1, "unit": "µg/mL"}, {"measurement": "MIC Staphylococcus aureus (GC 4542)", "setting": "Staphylococcus sp.; strain GC 4542", "value": 0.5, "unit": "µg/mL"}, {"measurement": "MIC Staphylococcus aureus-SMITH (GC 4543)", "setting": "Staphylococcus sp.; strain GC 4543", "value": 1, "unit": "µg/mL"}, {"measurement": "MIC Staphylococcus aureus (GC 4544)", "setting": "Staphylococcus sp.; strain GC 4544", "value": 1, "unit": "µg/mL"}, {"measurement": "MIC Staphylococcus aureus (GC 4545)", "setting": "Staphylococcus sp.; strain GC 4545", "value": 0.5, "unit": "µg/mL"}, {"measurement": "MIC Staphylococcus haemolyticus (GC 4546)", "setting": "Staphylococcus sp.; strain GC 4546", "value": 0.25, "unit": "µg/mL"}, {"measurement": "MIC Coagulase Negative Staphylococcus (GC 4547)", "setting": "Staphylococcus sp.; strain GC 4547", "value": 0.5, "unit": "µg/mL"}, {"measurement": "MIC Coagulase Negative Staphylococcus (GC 4548)", "setting": "Staphylococcus sp.; strain GC 4548", "value": 0.25, "unit": "µg/mL"}, {"measurement": "MIC Coagulase Negative Staphylococcus (GC 4549)", "setting": "Staphylococcus sp.; strain GC 4549", "value": 0.25, "unit": "µg/mL"}, {"measurement": "MIC Coagulase Negative Staphylococcus (GC 4551)", "setting": "Staphylococcus sp.; strain GC 4551", "value": 0.5, "unit": "µg/mL"}, {"measurement": "MIC Streptococcus agalactiae (GC 4564)", "setting": "Streptococcus sp.", "value": "<0.06", "unit": "µg/mL"}, {"measurement": "MIC Streptococcus pneumoniae (ATCC 6301)", "setting": "Streptococcus sp.", "value": "<0.06", "unit": "µg/mL"}, {"measurement": "MIC Streptococcus pneumoniae (GC 1894)", "setting": "Streptococcus sp.", "value": "<0.06", "unit": "µg/mL"}, {"measurement": "MIC Streptococcus pneumoniae (GC 4565)", "setting": "Streptococcus sp.", "value": "<0.06", "unit": "µg/mL"}, {"measurement": "MIC Streptococcus pyogenes (GC 4563)", "setting": "Streptococcus sp.", "value": "<0.06", "unit": "µg/mL"}, {"measurement": "MIC Streptococcus pneumoniae (ATCC 6301)", "setting": "Streptococcus sp.; inoculum 5×10^5 CFU/mL, strain ATCC 6301", "value": "<0.06", "unit": "µg/mL"}, {"measurement": "MIC Streptococcus pneumoniae (GC 1894)", "setting": "Streptococcus sp.; inoculum 5×10^5 CFU/mL, strain GC 1894", "value": "<0.06", "unit": "µg/mL"}, {"measurement": "MIC Streptococcus pyogenes (GC 4563)", "setting": "Streptococcus sp.; inoculum 5×10^5 CFU/mL, strain GC 4563", "value": "<0.06", "unit": "µg/mL"}, {"measurement": "MIC Streptococcus agalactiae (GC 4564)", "setting": "Streptococcus sp.; inoculum 5×10^5 CFU/mL, strain GC 4564", "value": "<0.06", "unit": "µg/mL"}, {"measurement": "MIC Streptococcus pneumoniae (GC 4565)", "setting": "Streptococcus sp.; inoculum 5×10^5 CFU/mL, strain GC 4565", "value": "<0.06", "unit": "µg/mL"}, {"measurement": "median effective dose (ED50), Staphylococcus aureus-SMITH (GC 4543)", "setting": "[1]", "value": 0.19, "unit": "mg/kg"}, {"measurement": "Anatomical Pathology (Day 10), Heart", "setting": "[2]", "value": 0}, {"measurement": "Anatomical Pathology (Day 10), Kidney", "setting": "[2]", "value": "+++"}, {"measurement": "MIC Escherichia coli (ATCC 25922)", "setting": "Escherichia coli", "value": 32, "unit": "µg/mL"}, {"measurement": "MIC Escherichia coli (GC 4559)", "setting": "Escherichia coli", "value": 16, "unit": "µg/mL"}, {"measurement": "MIC Escherichia coli (GC 4560)", "setting": "Escherichia coli", "value": 0.5, "unit": "µg/mL"}]}
